Laboratory results published in ChEMBL document CHEMBL3217598, “Synthesis, modeling, and crystallographic study of 3,4-disubstituted-1,2,5-oxadiazoles and evaluation of their ability to decrease STAT3 activity” (Medchemcomm, 2010).
The source made the active and inactive calls. The calls are words filed in the database; no cut-off is given here.

Columns and labels:
[1] = target: Signal transducer and activator of transcription 3 (Homo sapiens) (UniProt P40763); assay: Inhibition of STAT3 in human HCT 116 cells co-transfected with pSTAT3-TA-Luc at 2 uM after 24 hrs by dual luciferase assay; type: cell-based
Signal transducer and activator of transcription 3 (Homo sapiens), sequence (P40763 whole entry): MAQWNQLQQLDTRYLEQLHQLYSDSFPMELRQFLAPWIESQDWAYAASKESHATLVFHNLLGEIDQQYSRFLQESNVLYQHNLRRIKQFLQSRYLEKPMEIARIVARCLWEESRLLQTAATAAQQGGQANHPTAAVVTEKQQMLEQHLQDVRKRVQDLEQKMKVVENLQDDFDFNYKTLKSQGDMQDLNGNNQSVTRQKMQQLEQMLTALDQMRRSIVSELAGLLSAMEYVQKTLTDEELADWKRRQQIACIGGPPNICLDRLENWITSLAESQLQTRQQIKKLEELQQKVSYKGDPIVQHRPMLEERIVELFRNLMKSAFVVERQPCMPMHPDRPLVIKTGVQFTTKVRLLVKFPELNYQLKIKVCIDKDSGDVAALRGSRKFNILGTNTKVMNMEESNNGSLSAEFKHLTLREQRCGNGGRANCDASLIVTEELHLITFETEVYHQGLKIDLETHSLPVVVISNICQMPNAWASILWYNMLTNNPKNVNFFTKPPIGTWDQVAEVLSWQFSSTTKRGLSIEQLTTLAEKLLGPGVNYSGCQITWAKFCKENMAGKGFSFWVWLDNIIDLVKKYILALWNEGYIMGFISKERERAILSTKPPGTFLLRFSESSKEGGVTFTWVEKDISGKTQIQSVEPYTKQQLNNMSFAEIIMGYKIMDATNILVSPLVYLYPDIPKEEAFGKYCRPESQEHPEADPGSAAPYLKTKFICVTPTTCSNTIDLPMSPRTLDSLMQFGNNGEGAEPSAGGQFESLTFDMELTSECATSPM

[2] = target: Signal transducer and activator of transcription 3 (Homo sapiens) (UniProt P40763); assay: Inhibition of STAT3 in human HCT 116 cells co-transfected with pSTAT3-TA-Luc after 24 hrs by dual luciferase assay; type: cell-based
[3] = tested on: HCT-116; assay: Growth inhibition of human HCT116 cells assessed as cell proliferation at highest concentration after 24 hrs by WST-1 assay; type: functional
[4] = tested on: MDA-MB-468; assay: Growth inhibition of human MDA-MB-468 cells assessed as cell proliferation at highest concentration after 24 hrs by WST-1 assay; type: functional
[5] = tested on: MDA-MB-231; assay: Growth inhibition of human MDA-MB-231 cells assessed as cell proliferation at highest concentration after 24 hrs by WST-1 assay; type: functional
[6] = tested on: SW-620; assay: Growth inhibition of human SW620 cells assessed as cell proliferation at highest concentration after 24 hrs by WST-1 assay; type: functional
[7] = tested on: HCT-116; assay: Inhibition of human HCT116 cell proliferation at highest concentration after 48 hrs by WST-1 assay; type: functional, cell-based
[8] = tested on: MDA-MB-468; assay: Inhibition of human MDA-MB-468 cell proliferation at highest concentration after 48 hrs by WST-1 assay; type: functional, cell-based
[9] = tested on: MDA-MB-231; assay: Inhibition of human MDA-MB-231 cell proliferation at highest concentration after 48 hrs by WST-1 assay; type: functional, cell-based
[10] = tested on: SW-620; assay: Inhibition of human SW620 cell proliferation at highest concentration after 48 hrs by WST-1 assay; type: functional, cell-based
[11] = tested on: HCT-116; assay: Induction of apoptosis in human HCT116 cells assessed as rounded and floated morphology at 2.5 to 50 uM; type: functional, cell-based
[12] = tested on: HCT-116; assay: Induction of apoptosis in human HCT116 cells assessed as increase in cleaved caspase-3 level at 10 uM by western blot analysis; type: functional, cell-based
[13] = tested on: HCT-116; assay: Induction of apoptosis in human HCT116 cells assessed as increase in cleaved PARP level at 10 uM by western blot analysis; type: functional, cell-based

Row | SMILES | inhibition [1] | also measured
1 | O=C(NCc1ccccc1)Nc1nonc1-c1ccccc1 | 11% | –
2 | O=C(Nc1ccc(C(F)(F)F)cc1)Nc1nonc1-c1ccc(Cl)cc1 | 45% | inhibition [2]: Dose-dependent effect; growth inhibition (GI) [3]: 50%; growth inhibition (GI) [4]: 50%; growth inhibition (GI) [5]: 50%; growth inhibition (GI) [6]: 50%; inhibition [7]: Active; inhibition [8]: Active; inhibition [9]: Active; inhibition [10]: Active; Activity [11]: Active; Activity [12]: Active; Activity [13]: Active
3 | CC(=O)Oc1ccc(-c2nonc2N(C)C(=O)N(C)c2ccc(C(F)(F)F)cc2)cc1 | 26% | –
4 | CN(C(=O)Nc1nonc1-c1ccc(OCc2ccccc2)cc1)c1ccc(C(F)(F)F)cc1 | 21% | –
5 | O=C(Nc1ccccc1)Nc1nonc1-c1ccccc1 | 36% | –
6 | O=C(Nc1nonc1-c1ccc(Cl)cc1)c1ccc(C(F)(F)F)cc1 | -7% | –
7 | O=S(=O)(Cc1ccccc1)Nc1nonc1CO | -2% | –
8 | CC(=O)Oc1ccc(-c2nonc2NC(=O)N(C)c2ccc(C(F)(F)F)cc2)cc1 | 32% | –
9 | O=C(Cc1ccccc1)Nc1nonc1CO | 14% | –
10 | COC(=O)c1nonc1NC(=O)Cc1ccccc1 | 9% | –
11 | Cc1nonc1NC(=O)Nc1ccccc1 | 2% | –
12 | CN(C(=O)Nc1nonc1-c1ccc(Cl)cc1)c1ccccc1 | 25% | –
13 | CN(C(=O)Nc1nonc1-c1ccc(O)cc1)c1ccc(C(F)(F)F)cc1 | 51% | –
14 | O=C(Cc1ccccc1)Nc1nonc1-c1ccccc1 | 11% | –
15 | Cc1nonc1NS(=O)(=O)Cc1ccccc1 | 6% | –
16 | CN(C(=O)N(C)c1nonc1-c1ccc(Cl)cc1)c1ccc(C(F)(F)F)cc1 | 8% | –
17 | O=S(=O)(Nc1nonc1-c1ccc(Cl)cc1)c1ccc(C(F)(F)F)cc1 | -3% | –
18 | COC(=O)c1nonc1NS(=O)(=O)Cc1ccccc1 | 7% | –
19 | Cc1nonc1NC(=O)Cc1ccccc1 | 6% | –
20 | O=C(Nc1ccc(C(F)(F)F)cc1)Nc1nonc1-c1ccc(O)cc1 | 24% | –
